Patent US8252563B2, “Reductase, gene thereof and method of using the same” (Sumitomo Chemical Company, Limited, priority 2007, dated 2012)

B1: invented protein (active fragment (C)): purified reductase (SEQ ID NO:1) of Stenotrophomonas sp. SC-1, expressed in E. coli HB101 with plasmid pTrcRs (protein, listed as Stenotrophomonas sp.)
chain: MTATRELGRSGLHVAPIAFGGNVFGWSADEKTSFALLDAFVEAGFNLVDTADVYSAWVPGNQGGESETILGRWFKHSGKRDKVVLATKVAKWSEHPGLSADNITAAVEDSLRRLQTDVIDLYQAHEDDESTPLESTLAAFGRLIEQGKVRAIGASNYSAERLSDALKVSADYKLPRYETLQPEYNLYDRAGYEAGLEAVVRDAQLGVISYYSLASGFLSGKYRSAADAGKSSARGQSVVDKYVNPRGLRILGALDDVASTHGVSPSQIAIAWLIARPGITAPIVSATSVEQLNDVLAAAKVALSAQEVQQLDAASAEQA

Experiments:
[1] = tested on: purified invented protein (active fragment (C)); assay: Substrate specificity: reduction activity of the invented protein on carbonyl compounds (NADPH absorbance decrease at 340 nm); assay type: biochemical, Stenotrophomonas sp. SC-1 strain
[2] = Optimal pH of the reduction activity on ethyl benzoylformate; assay type: biochemical; conditions: ethyl benzoylformate 10 mM, NADPH 0.5 mM, pH 5.5 to 10, 30° C., 1 minute, 340 nm
[3] = substrate 1 mM, NADPH 0.5 mM, 100 mM phosphate buffer pH 7, 30° C., 5 minutes, relative value, activity on ethyl benzoylformate = 100%

Molecule	Relative activity (%) [1, 3]	further results
O=C(O)CCC(=O)c1ccccc1 [3-Benzoylpropionic acid]	3.3%	
CCOC(=O)C(=O)c1ccccc1 [Eethyl benzoylformate, ethyl benzoylformate]	100%	
CCOC(=O)CC(=O)CCl [Ethyl 4-chloro-3-oxobutyrate]		Relative activity (%) ([1]; pH 7): 0.5%
CCOC(=O)C(=O)CCc1ccccc1 [Ethyl 4-phenyl2-oxobutyrate]	1.5%	
CCOC(=O)C(C)=O [Ethyl pyruvate]	33.7%	
COC(=O)CC(=O)CBr [Methyl 4-bromo-3-oxobutyrate]	3.9%	
CCC=O [Propionaldehyde]	8.6%	
B1		optimal pH [2]: 7.0
